Values quoted from earlier work in patent publication US20100286186A1, “NOVEL DICARBOXYLIC ACID LINKED AMINO ACID AND PEPTIDE PRODRUGS OF OPIOIDS AND USES THEREOF” (Shire LLC, priority 2009, published 2010).

Conditions: in vivo; cited from earlier work

Structure (SMILES): CC(C)[C@H](N)C(=O)OCCOCn1cnc2c(=O)nc(N)[nH]c21 [valine ester of acyclovir]
- chemical degradation in the GI tract before absorption: 15-25%
